Data on 7 compounds can be found in BindingDB's records for patent US12421225 (Kaken Pharmaceutical Co., 2025).

By IC50 is commonly meant the concentration that inhibits the measured activity by half. Higher therefore signals weaker potency.

The assay has as its target Sodium channel protein type 9 subunit alpha (Homo sapiens, UniProt Q15858). The assay is described as follows: Human Nav1.7 Inhibitory Activity Evaluation. The protocol: The amount of current through human Nav1.7 was recorded using a fully automatic patch clamp device QPatch16X (Sophion Biosciences) at room temperature. As the extracellular solution, the solution of 145 mM NaCl, 4 mM KCl, 1 mM MgCl2, 2 mM CaCl2, 10 mM Glucose, 10 mM 4-(2-hydroxyethyl)-1-piperazine ethanesulfonic acid (HEPES) at pH 7.4 was used. As the intracellular solution, the solution of 135 mM CsF, ⅕ mM glycol ether diaminetetraacetic acid (EGTA)/CsOH, 10 mM HEPES, 10 mM NaCl at pH 7.3 was used. The test compounds were dissolved in dimethyl sulfoxide (DMSO) and diluted with the extracellular solution to attain the DMSO concentration of 0.1% at the time of assay. The current response was obtained at a sampling frequency of 25 kHz, and noise was removed with a 3 kHz low-pass filter. The holding potential was −100 mV. Correction of the leakage current was carried out by applying a step pulse of −120 mV before the test pulse. In order to investigate inhibitory action of the test compound, the following test pulse was given: Namely, after depolarizing pulse of −10 mV was applied for 50 milliseconds, it was fixed at −120 mV for 500 milliseconds; a potential at which about 30-40% of the channel was inactivated was maintained for 15 seconds, then fixed again at −120 mV for 100 milliseconds, and finally a −10 mV depolarization pulse was given for 50 milliseconds. Test pulses were given before and after the test compound addition.

A value given as a limit tells only on which side of the number the result lay.

Sodium channel protein type 9 subunit alpha, sequence (Q15858 whole entry): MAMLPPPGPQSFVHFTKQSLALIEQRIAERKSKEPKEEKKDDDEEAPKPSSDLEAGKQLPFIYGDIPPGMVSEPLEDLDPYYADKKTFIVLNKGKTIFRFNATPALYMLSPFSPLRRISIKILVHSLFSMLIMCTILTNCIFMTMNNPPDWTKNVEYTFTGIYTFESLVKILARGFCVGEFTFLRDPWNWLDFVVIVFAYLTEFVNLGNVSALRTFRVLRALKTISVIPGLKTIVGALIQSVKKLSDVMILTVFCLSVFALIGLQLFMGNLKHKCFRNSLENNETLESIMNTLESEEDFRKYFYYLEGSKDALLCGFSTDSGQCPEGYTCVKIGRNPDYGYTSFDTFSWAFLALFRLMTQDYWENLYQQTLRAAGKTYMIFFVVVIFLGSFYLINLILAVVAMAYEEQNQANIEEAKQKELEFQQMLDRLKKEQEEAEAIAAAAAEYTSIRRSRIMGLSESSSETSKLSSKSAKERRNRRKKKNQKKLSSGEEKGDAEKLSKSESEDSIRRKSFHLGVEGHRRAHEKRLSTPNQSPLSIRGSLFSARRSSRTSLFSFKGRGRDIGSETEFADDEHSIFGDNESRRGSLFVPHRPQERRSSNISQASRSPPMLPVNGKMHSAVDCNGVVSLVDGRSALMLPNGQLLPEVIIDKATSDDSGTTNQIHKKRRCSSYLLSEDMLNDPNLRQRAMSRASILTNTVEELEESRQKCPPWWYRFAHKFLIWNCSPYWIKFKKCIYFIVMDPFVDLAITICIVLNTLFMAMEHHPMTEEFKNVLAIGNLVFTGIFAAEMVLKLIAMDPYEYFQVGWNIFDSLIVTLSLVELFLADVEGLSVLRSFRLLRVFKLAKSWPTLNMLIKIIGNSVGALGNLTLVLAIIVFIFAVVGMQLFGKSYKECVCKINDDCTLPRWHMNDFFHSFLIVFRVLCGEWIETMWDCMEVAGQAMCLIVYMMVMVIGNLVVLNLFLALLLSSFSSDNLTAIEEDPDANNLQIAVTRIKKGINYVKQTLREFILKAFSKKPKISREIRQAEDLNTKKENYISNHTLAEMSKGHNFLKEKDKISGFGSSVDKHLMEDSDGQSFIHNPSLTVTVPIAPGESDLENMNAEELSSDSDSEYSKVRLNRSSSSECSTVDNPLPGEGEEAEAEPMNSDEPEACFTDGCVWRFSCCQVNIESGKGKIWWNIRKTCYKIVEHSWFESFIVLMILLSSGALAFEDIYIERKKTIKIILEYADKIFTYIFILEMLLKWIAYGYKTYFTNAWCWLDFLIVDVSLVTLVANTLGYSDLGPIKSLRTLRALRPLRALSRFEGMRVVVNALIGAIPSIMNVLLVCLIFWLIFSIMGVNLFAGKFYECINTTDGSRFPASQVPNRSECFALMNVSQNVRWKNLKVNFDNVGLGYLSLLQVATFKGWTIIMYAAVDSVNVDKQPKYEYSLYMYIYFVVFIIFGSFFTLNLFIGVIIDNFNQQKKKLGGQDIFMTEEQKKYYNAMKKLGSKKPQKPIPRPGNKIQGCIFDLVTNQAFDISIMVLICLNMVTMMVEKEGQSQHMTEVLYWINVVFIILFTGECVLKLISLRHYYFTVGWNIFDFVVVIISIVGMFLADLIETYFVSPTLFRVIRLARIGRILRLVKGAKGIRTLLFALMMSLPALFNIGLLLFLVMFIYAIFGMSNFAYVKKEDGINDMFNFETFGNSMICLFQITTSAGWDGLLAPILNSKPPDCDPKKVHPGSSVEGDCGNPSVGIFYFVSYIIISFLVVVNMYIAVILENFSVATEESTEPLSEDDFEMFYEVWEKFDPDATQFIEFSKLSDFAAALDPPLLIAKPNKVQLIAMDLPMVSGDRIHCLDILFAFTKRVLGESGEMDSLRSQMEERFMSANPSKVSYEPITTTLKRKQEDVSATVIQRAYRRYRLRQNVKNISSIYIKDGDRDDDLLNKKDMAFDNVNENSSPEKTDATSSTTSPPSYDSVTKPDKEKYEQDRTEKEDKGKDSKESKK

For the compound `O=C(N[C@H]1COc2ccc(-c3ccccn3)cc2C1)c1cc2n(n1)CC[C@@H](COCC1CC1)O2` (single isomer, unassigned; isomer B) [US12421225, Example 111 (isomer B)], the IC50 is under 1000 nM.

In turn, `CC[C@@H]1CCn2nc(C(=O)N[C@H]3COc4ccc(C#N)cc4C3)cc2O1` (single isomer, unassigned; isomer B) [US12421225, Example 92 (isomer B)] gave an IC50 of under 1000 nM.

The compound `O=C(N[C@H]1COc2ccc(CC(F)F)cc2C1)c1cc2n(n1)CC[C@@H](COCC(F)(F)F)O2` (single isomer, unassigned; isomer B) [US12421225, Example 127 (isomer B)] came in with an IC50 of under 1000 nM.

For the compound `N#Cc1ccc2c(c1)C[C@@H](NC(=O)c1cc3n(n1)CCC(CC1CC1)O3)CO2` (single isomer, unassigned) [US12421225, Example 97 (isomer B)], the IC50 was under 1000 nM.

Take `N#Cc1ccc2c(c1)C[C@@H](NC(=O)c1cc3n(n1)C[C@@H](CCCOC(F)(F)F)O3)CO2` (single isomer, unassigned; isomer B) [US12421225, Example 247 (isomer B)]: the IC50 was under 1000 nM.

`N#Cc1ccc2c(c1)C[C@@H](NC(=O)c1cc3n(n1)CC[C@@H](COCC1(F)CC1)O3)CO2` (single isomer, unassigned; isomer B) [US12421225, Example 552 (isomer B)] registered a half-inhibitory concentration (IC50) of at most 10000 nM.

Turning to `O=C(N[C@H]1COc2ccc(Br)cc2C1)c1cc2n(n1)CC(C(F)(F)F)O2` (some centres not stated) [US12421225, Example 445], the IC50 was under 1000 nM.
